Test results taken from patent publication US11879140B2, “P21 mRNA targeting DNAzymes” (1E Therapeutics Ltd., priority 2020, dated 2024).

How the values were obtained:
[1] = test system: senescent lung fibroblasts (WI-38); test: Viability assay on WI-38 cells; type: cell-based, human; details: FIG. 6D
Description: (§1) Human IMR-90, BJ, WI-38 fibroblasts and REC epithelial cells were obtained from ATCC and grown at 5% oxygen. IMR-90 and REC cells were maintained in DMEM medium comprising 100 units per ml of penicillin, […] of streptomycin and 10% fetal bovine serum. BJ and WI-38 cells were maintained in EMEM medium comprising 100 units per ml of penicillin, […] of streptomycin, 10% fetal bovine serum, 1% Pyruvate, 1% L-Glutamine, mLFs were isolated according to standard procedures [Seluanov, A., et al. J Vis Exp (2010) (44):2033] and grown at 5% oxygen. Cells were maintained in EMEM medium comprising 100 units per ml of penicillin, […] of streptomycin and 15% fetal bovine serum.
(§2) DNA damage induced senescence (DIS) was induced by etoposide treatment (E1383, Sigma) at a concentration of […] for IMR-90, BJ, and WI-38, 16 μM for mLF and 12.5 μM for REC for a duration of 48 hours. Cells acquired the senescence phenotype 7 days post treatment (determined by SA-beta-gal staining).
(§3) Primary target cells (IMR-90, BJ, […]) were plated in 24-well plates at 100,000 cells per well. Cells were transfected with different concentrations of DNAzymes (as depicted in Table 2, below) using Lipofectamine™ 2000 (Invitrogen) according to manufacturer instructions. […]

[2] = test system: senescent epithelial kidney cells (REC); test: Viability assay on REC cells; type: cell-based, human; details: FIG. 6D
Description: as §1, §2, §3

[3] = test system: senescent human IMR-90 fibroblast cells; type: cell-based; details: increasing concentrations (FIGS. 6A-C, 12A-C)
Method in brief: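 Senescence was induced by etoposide at […] for 48 h, with the phenotype present 7 days later, or by H-RasG12 or long-term passaging. Cells grown at 5% oxygen were transfected with DNAzymes by Lipofectamine 2000, and survival was scored 3-6 days later by PrestoBlue relative to Lipofectamine-only control.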

human p21 mRNA = test: In vitro cleavage assay of human p21 mRNA; type: biochemical; details: in vitro cleavage of p21 mRNA (SEQ ID NO: 1); RNA substrate 500 nM, 37° C. 60 min, agarose gel
From the text: Total RNA was isolates from senescent IMR-90 cells using Nucleospin® RNA kit (Macherey-Nagel™). cDNA was synthesized with gene-specific reverse primers using M-MLV Reverse Transcriptase (Promega), according to the manufacturer's protocol. To generate template for in vitro transcription (IVT) reaction, the cDNA was PCR amplified using KAPA Taq EXtra HotStart® ReadyMix™ PCR Kit (R&D). PCR product was run on 1.5% agarose TAE gel, the correct band size was cut and DNA was cleaned using Wizard® SV Gel and PCR Clean-Up System kit (Promega). IVT was performed using HiScribe™ T7 High Yield RNA Synthesis Kit (NEB). Samples were then treated with DNase I (New England Biolabs) and incubated for 15 minutes at 37° C. IVT product was run on 1.5% agarose TBE gel, the correct band size was cut and RNA was cleaned using QIAquick® Gel Extraction Kit (Qiagen). See primer sequences in Table 1, below.
RNA substrate was diluted with Molecular Biology Grade Water (Biological Industries) and used in in vitro cleavage assay. A 20 μl reaction system comprising RNA substrate (final concentration 500 nM), 2 μl 10× reaction buffer (50 mM Tris-HCl pH 7.4, 100 mM NaCl, 10 mM MgCl2) and 1 μl DNAzyme (10 μM) (as depicted in Table 2, below) was mixed. Reactions were incubated at 37° C. for 60 min. 2×RNA L.D. (Thermo Fisher) was added to each sample. Samples were heated at 70° C. for 30 sec, centrifuged and loaded onto 1.5% agarose TBE gels. Quantification was performed using Image Lab software (Bio Rad).

mouse p21 mRNA = test: In vitro cleavage of mouse p21 mRNA; type: biochemical; details: in vitro cleavage of mouse p21 mRNA (SEQ ID NO: 3)
[4] = test system: Bleomycin-induced pulmonary fibrosis model mice; test: Bleomycin-induced idiopathic pulmonary fibrosis (IPF) mouse model; type: in vivo
Description: Total RNA from lung samples (post-caval lobe) was extracted using RNAiso (Takara Bio. Japan) according to manufacturer protocol. Reverse transcription was performed using MMLV-RT (Invitrogen). Real-time PCR was performed using TB Green™ Premix Ex Taq™ II (Takara Bio). To calculate the relative mRNA expression level, the expression of each gene (Collagen Type 1) were be normalized to that of reference gene 36B4 (gene symbol: Rplp0).
C57/B6 mice were induced to develop pulmonary fibrosis by a single intra-tracheal administration of Bleomycin hydrochloride (Nippon Kayaku. Japan) in saline at a dose of 3.0 mg/kg, in a volume of 50 μL per animal using Microsprayer® (Penn-Century. USA). Mice that served as the Sham control group were intratracheally administered with saline, instead of the Bleomycin. Mice were initially randomized based on body weight before Bleomycin instillation. At second randomization, Bleomycin-induced pulmonary fibrosis model mice were divided based on the body weight changes on the day before the start of treatment at Day 7. DNAzyme treatment was performed intranasally with 200 μg of DNAzyme resuspended in 50 μL PBS per treatment. PBS intra-nasal treatment served as control. Mice were treated daily following Bleomycin instillation with either DNAzyme or control from day 1 to 20 (prophylactic regimen) or from day 7 to 20 (therapeutic regimen). Body weight, viability, clinical signs and behavior were monitored daily. Mice were sacrificed three weeks following Bleomycin instillation.
Right lung tissues prefixed in 10% neutral buffered formalin were embedded in paraffin and sectioned at 4 μm.
For immunohistochemistry (IHC) staining, sections were subjected to heat induced epitope retrieval (HIER) Following HIER, the sections were incubated rabbit monoclonal anti-p21 antibody [EPR18021] (Abcam) 1:2000 or rabbit monoclonal anti-α-SMA antibody [EPR5368] (Abcam) 1:2000. Section bound primary antibody was detected employing horseradish peroxidase labeled anti-rabbit IgG polymeric reagent.
For Masson's Trichrome staining, the sections were deparaffinized and rehydrated, followed by re-fixation with Bouin's solution for 15 minutes. The sections were stained in Weigert's iron Hematoxylin working solution (Sigma-Aldrich), Biebrich scarlet-Acid fuchsin solution (Sigma-Aldrich), Phosphotungstic/phosphomolybdic Acid solution, Aniline blue solution and 1% Acetic Acid solution (Sigma-Aldrich). For quantitative analysis of lung fibrosis area, bright field images of Masson's Trichrome-stained sections were randomly captured using a digital camera (DFC295; Leica, Germany) at 100-fold magnification, and the subpleural regions in 20 fields/mouse were evaluated according to the criteria for grading lung fibrosis [Ashcroft. T. et al., Simple method of estimating severity of pulmonary fibrosis on a numerical scale. J Clin. Pathol. (1988) 41: 467-470]. All sections were blindly analyzed by an experimenter.
Digital images were analyzed by a custom MATLAB algorithm, using Image Processing Toolbox. First, a binary image was calculated, in order to distinguish background pixels from the lobe pixels. Next, a morphological close operation on the image was preformed, fill of the holes, and extraction of the largest connected component, in order to detect all lobe area, including alveoli. The density of the lobe was defined by the ratio between the stained pixels to the total pixels in the lobe area. For Masson's Trichrome staining, blue pixels were detected and separated from purple staining by specifying RGB (red, green, and blue) constraints. The Collagen percentage in each image was defined by the ratio between the blue pixels to the total pixels in the lobe area.
For p21 staining, an image segmentation algorithm was performed to identify all nuclei in image. Next, cells positive to p21 were detected by RGB and size constraints. […]

Substance	elimination of senescent but not growing WI-38 cells [1]	elimination of senescent but not growing REC cells [2]	selectivity of killing, senescent versus growing IMR-90 cells [3]	Validated cleavage (human p21 mRNA)	Validated cleavage (mouse p21 mRNA)	oxygen saturation in the blood ([4]; FIG. 14A)	number of p21 expressing cells in the lung tissue ([4]; both treatment regimens, IHC day 21 (FIG. 14B))	Hydroxyproline levels ([4]; left lung, day 21, therapeutic and preventative (FIG. 14E))	Ashcroft fibrosis score ([4]; lung sections day 21, compared to bleomycin treated group, p=0.0206 (FIG. 10B))	survival rate ([4]; over 21 days, both therapeutic and preventative regimens, vehicle group 75% (FIG. 10D)) [%]	expression levels of senescence related genes and SASP factors ([4]; post caval lobe, day 21 (FIG. 14C))	lung tissue density ([4]; therapeutic and preventive groups (FIG. 14F))	collagen levels (Masson's Trichrome) ([4]; therapeutic and preventive regimens (FIG. 14D))
DNAzyme 1114: SEQ ID NO: 40: AGGAGAACAggctagctacaacgaGGGAUGAGG (DNA AGGAGAACAGGCTAGCTACAACGAGGGAUGAGG; DNA, backbone, methylation of C and T or U not given here)	effectively eliminated	effectively eliminated	maintained over a large range of concentrations	validated for mediating cleavage of p21 mRNA									
Dz_639: targets mouse p21; SEQ ID NO: 85: GGCCGAAGAggctagctacaacgaGGGGAAGAG; used in IPF model (GGCCGAAGAGGCTAGCTACAACGAGGGGAAGAG; chemistry not given here)					effective	significantly elevated	reduction	reduced	lower	100	significantly reduced	reduced	significantly reduced
